Laboratory results: publication PMC6934184, “Selective DNA-PKcs inhibition extends the therapeutic index of localized radiotherapy and chemotherapy” (The Journal of Clinical Investigation, 2019)

Target: T1, ABL1 M351T (Homo sapiens, UniProt P00519, M351T)
T1 construct: purchased Thermo Fisher Scientific (Life Technologies) SelectScreen
Assay: SelectScreen LanthaScreen
Type: binding
Details: read-out: % displacement
Outline: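 Percent values come from Thermo SelectScreen profiling of NU5455, combining activity and binding assays. CSF1R was run in Z'LYTE format at Km app ATP, and CAMK1 in Adapta format with ATP listed at 10.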

## CN(C(=O)CN1CCOCC1)c1ccc2sc3c(-c4cccc5c(=O)cc(N6CC7CCC(C6)O7)oc45)cccc3c2c1 [NU5455]
  inhibition at 1 µM: -1%
